System: mouse FL5.12 cells transfected with Bcl-xL
Assay: FL5.12 cellular assay (cell viability, CellTiter-Glo)
Type: cell-based
Conditions: IL-3-depleted, 3% FBS assay media, 24 hours, read-out: FL5.12 Bcl-xL, -IL3, EC50
Experimental: Cell viability was assayed using the CellTiter-Glo assay (Promega Corp., Madison, WI) according to the manufacturer instructions. Individual determinations were the result of duplicate values. […] Table 2. In Vitro Data

Compound | EC50 [nM]
COCCOCCOCCOC12CC3CC(CC(Cn4ncc(-c5ccc(N6CCc7cccc(C(=O)Nc8nc9ccccc9s8)c7C6)nc5C(=O)O)c4C)(C3)C1)C2 [Example 80, 6-[8-(1,3-benzothiazol-2-ylcarbamoyl)-3,4-dihydroisoquinolin-2(1H)-yl]-3-(1-{[3-{2-[2-(2-methoxyethoxy)ethoxy]ethoxy}tricyclo[3.3.1.1^3,7]dec-1-yl]methyl}-5-methyl-1H-pyrazol-4-yl)pyridine-2-carboxylic acid] | 1
CC(C)OC12CC3CC(CC(Cn4cc(-c5ccc(N6CCc7cccc(C(=O)Nc8nc9ccccc9s8)c7C6)nc5C(=O)O)cn4)(C3)C1)C2 [Example 12, 6-[8-(1,3-benzothiazol-2-ylcarbamoyl)-3,4-dihydroisoquinolin-2(1H)-yl]-3-(1-{[3-(propan-2-yloxy)tricyclo[3.3.1.1^3,7]dec-1-yl]methyl}-1H-pyrazol-4-yl)pyridine-2-carboxylic acid] | 24
Cc1c(-c2ccc(N3CCc4cccc(C(=O)Nc5nc6ccccc6s5)c4C3)nc2C(=O)O)ccnc1NC12CC3CC(CC(C3)C1)C2 [Example 76, 6-[8-(1,3-benzothiazol-2-ylcarbamoyl)-3,4-dihydroisoquinolin-2(1H)-yl]-3'-methyl-2'-(tricyclo[3.3.1.1^3,7]dec-1-ylamino)-3,4'-bipyridine-2-carboxylic acid] | 71
O=C(Nc1nc2ccccc2s1)c1cccc2c1CN(c1ccc(-c3cnn(CC45CC6CC(C4)CC(N4CCS(=O)(=O)CC4)(C6)C5)c3)c(C(=O)O)n1)CC2 [Example 33, 6-[8-(1,3-benzothiazol-2-ylcarbamoyl)-3,4-dihydroisoquinolin-2(1H)-yl]-3-(1-{[3-(1,1-dioxidothiomorpholin-4-yl)tricyclo[3.3.1.1^3,7]dec-1-yl]methyl}-1H-pyrazol-4-yl)pyridine-2-carboxylic acid] | > 1000
[2H]C1([2H])c2c(cccc2C(=O)Nc2nc3ccccc3s2)CCN1c1ccc(-c2cnn(CC34CC5CC(CC(C5)C3)C4)c2C)c(C(=O)O)n1 [Example 44, 6-[8-(1,3-benzothiazol-2-ylcarbamoyl)-1,1-dideutero-3,4-dihydroisoquinolin-2(1H)-yl]-3-[5-methyl-1-(tricyclo[3.3.1.1^3,7]dec-1-ylmethyl)-1H-pyrazol-4-yl]pyridine-2-carboxylic acid] | 0.3
COC12CC3CC(CC(Cn4ncc(-c5ccc(N6CCc7cccc(C(=O)Nc8nc9ccccc9s8)c7C6)nc5C(=O)NS(C)(=O)=O)c4C)(C3)C1)C2 [Example 37, N-(1,3-benzothiazol-2-yl)-2-{5-(1-{[3-methoxytricyclo[3.3.1.1^3,7]dec-1-yl]methyl}-5-methyl-1H-pyrazol-4-yl)-6-[(methylsulfonyl)carbamoyl]pyridin-2-yl}-1,2,3,4-tetrahydroisoquinoline-8-carboxamide] | 3
Cc1c(C(=O)NC23CC4CC(CC(C4)C2)C3)cccc1-c1ccc(N2CCc3cccc(C(=O)Nc4nc5ccccc5s4)c3C2)nc1C(=O)O [Example 54, 6-[8-(1,3-benzothiazol-2-ylcarbamoyl)-3,4-dihydroisoquinolin-2(1H)-yl]-3-{2-methyl-3-[tricyclo[3.3.1.1^3,7]dec-1-ylcarbamoyl]phenyl}pyridine-2-carboxylic acid] | > 1000
O=C(Nc1nc2ccccc2s1)c1cccc2c1CN(c1ccc(-c3cnn(CC4CC5CCC(C4)N5C(=O)OCc4ccccc4)c3)c(C(=O)O)n1)CC2 (stereo not shown) [Example 84, 6-[8-(1,3-benzothiazol-2-ylcarbamoyl)-3,4-dihydroisoquinolin-2(1H)-yl]-3-[1-({8-[(benzyloxy)carbonyl]-8-azabicyclo[3.2.1]oct-3-yl}methyl)-1H-pyrazol-4-yl]pyridine-2-carboxylic acid] | > 1000
Cc1c(-c2ccc(N3CCc4cccc(C(=O)Nc5nc6ccccc6s5)c4C3)nc2C(=O)O)cnn1CC1(OCCS(C)(=O)=O)CCCCCCC1 [Example 65, 6-[8-(1,3-benzothiazol-2-ylcarbamoyl)-3,4-dihydroisoquinolin-2(1H)-yl]-3-[5-methyl-1-({1-[2-(methylsulfonyl)ethoxy]cyclooctyl}methyl)-1H-pyrazol-4-yl]pyridine-2-carboxylic acid] | 1
O=C(Nc1nc2ccccc2s1)c1cccc2c1CN(c1ccc(-c3cnn(CC45CC6CC(C4)CC(OCCN4CCOCC4)(C6)C5)c3)c(C(=O)O)n1)CC2 [Example 26, 6-[8-(1,3-benzothiazol-2-ylcarbamoyl)-3,4-dihydroisoquinolin-2(1H)-yl]-3-[1-({3-[2-(morpholin-4-yl)ethoxy]tricyclo[3.3.1.1^3,7]dec-1-yl}methyl)-1H-pyrazol-4-yl]pyridine-2-carboxylic acid] | 243
COC1(Cn2ncc(-c3ccc(N4CCc5cccc(C(=O)Nc6nc7ccccc7s6)c5C4)nc3C(=O)O)c2C)CCCC2(CC2)C1 (stereo not shown) [Example 79, 6-[8-(1,3-benzothiazol-2-ylcarbamoyl)-3,4-dihydroisoquinolin-2(1H)-yl]-3-{1-[(5-methoxyspiro[2.5]oct-5-yl)methyl]-5-methyl-1H-pyrazol-4-yl}pyridine-2-carboxylic acid] | 0.9
Cc1c(-c2ccc(N3CCc4cccc(C(=O)Nc5nc6ccncc6s5)c4C3)nc2C(=O)O)cnn1CC12CC3CC(CC(C3)C1)C2 [Example 78, 3-[5-methyl-1-(tricyclo[3.3.1.1^3,7]dec-1-ylmethyl)-1H-pyrazol-4-yl]-6-[8-([1,3]thiazolo[5,4-c]pyridin-2-ylcarbamoyl)-3,4-dihydroisoquinolin-2(1H)-yl]pyridine-2-carboxylic acid] | 3
Cc1c(-c2ccc(N3CCc4cccc(C(=O)Nc5nc6ccccc6s5)c4C3)nc2C(=O)O)ccnc1S(=O)(=O)C12CC3CC(CC(C3)C1)C2 [Example 70, 6-[8-(1,3-benzothiazol-2-ylcarbamoyl)-3,4-dihydroisoquinolin-2(1H)-yl]-3'-methyl-2'-(tricyclo[3.3.1.1^3,7]dec-1-ylsulfonyl)-3,4'-bipyridine-2-carboxylic acid] | 72
Cc1c(-c2ccc(N3CCc4cccc(C(=O)Nc5nc6ccccc6s5)c4C3)nc2C(=O)O)ccnc1OCC12CC3CC(CC(C3)C1)C2 [Example 27, 6-[8-(1,3-benzothiazol-2-ylcarbamoyl)-3,4-dihydroisoquinolin-2(1H)-yl]-3'-methyl-2'-(tricyclo[3.3.1.1^3,7]dec-1-ylmethoxy)-3,4'-bipyridine-2-carboxylic acid] | 214
Cc1c(-c2ccc(N3CCc4cccc(C(=O)Nc5nc6ccccc6s5)c4C3)nc2-c2nn[nH]n2)cnn1CC12CC3CC(CC(C3)C1)C2 [Example 19, N-(1,3-benzothiazol-2-yl)-2-{5-[5-methyl-1-(tricyclo[3.3.1.1^3,7]dec-1-ylmethyl)-1H-pyrazol-4-yl]-6-(2H-tetrazol-5-yl)pyridin-2-yl}-1,2,3,4-tetrahydroisoquinoline-8-carboxamide] | 3
Cc1cc(OCC23CC4CC(CC(C4)C2)C3)ccc1-c1ccc(N2CCc3cccc(C(=O)Nc4nc5ccccc5s4)c3C2)nc1C(=O)O [Example 20, 6-[8-(1,3-benzothiazol-2-ylcarbamoyl)-3,4-dihydroisoquinolin-2(1H)-yl]-3-{2-methyl-4-[tricyclo[3.3.1.1^3,7]dec-1-ylmethoxy]phenyl}pyridine-2-carboxylic acid] | > 1000

Source: patent EP2766361B1, “8-CARBAMOYL-2-(2,3-DISUBSTITUTED PYRID-6-YL)-1,2,3,4-TETRAHYDROISOQUINOLINE DERIVATIVES AS APOPTOSIS-INDUCING AGENTS FOR THE TREATMENT OF CANCER AND IMMUNE AND AUTOIMMUNE DISEASES” (priority 2011, dated 2013)
